pIC50, pKi: −log10 of the molar value. Activity calls are given as the source filed them. No cut-off for these calls is given here.

Data set [1] can be described thus: Cytotoxicity against human HepG2 cells assessed as reduction in cell viability incubated for 48 hrs by MTT assay. It is filed as toxicity, cell-based. The settings on record: read-out: TC50. (Tetrazolium assays rely on reduction of a dye to a coloured formazan, in cell work by metabolically active cells.)
Data set [2] relates to Plasmodium falciparum. As to the kind of experiment: Antiplasmodial activity against chloroquine resistant Plasmodium falciparum RKL-9 infected in human erythrocytes assessed as inhibition of parasitemia by SYBR green-I fluorescence based spectrofluorometric analysis. It is filed as functional, organism-based. Conditions: RKL-9, Erythrocyte.
Data set [3] can be described thus: Therapeutic index, ratio of TC50 for cytotoxicity against human HepG2 cells to IC50 for antiplasmodial activity against Plasmodium falciparum 3D7 infected in human red blood cells. It is filed as toxicity, cell-based. Conditions: read-out: TI.
Data set [4] deals with Plasmodium falciparum. As to the kind of experiment: Antiplasmodial activity against Plasmodium falciparum 3D7 infected in human red blood cells assessed as inhibition of parasitemia incubated for 48 hrs by giemsa staining based light microscopic analysis. It is filed as functional, organism-based, Red blood cell. Conditions: 3D7, Erythrocyte.
For data set [5], the system named is Plasmodium falciparum. Put plainly: Induction of mitochondrial membrane loss in Plasmodium falciparum 3D7 assessed as reduction in red-green ratio at IC50 concentration incubated for 3 hrs by JC-1 staining based spectrofluorometric analysis. It is filed as functional.
For data set [6], the system named is Plasmodium falciparum. As to the kind of experiment: Resistance index, ratio of IC50 for antiplasmodial activity against chloroquine-resistant Plasmodium falciparum RKL-9 to IC50 for antiplasmodial activity against Plasmodium falciparum 3D7. It is filed as functional.
The subject of data set [7] is Plasmodium falciparum. Put plainly: Inhibition of Plasmodium falciparum plasmepsin X […] at 1 uM using DABCYL-G-PSFVEAPVRGG-EDANS as substrate by fluorescence based assay relative to control.
The next data set has as its system Erythrocyte. Put plainly: Hemolytic activity against human red blood cells upto 1600 uM incubated for 1 hrs by hemolysis assay. It is filed as toxicity, cell-based.
Data set [8] concerns Plasmodium falciparum. Put plainly: Antiplasmodial activity against Plasmodium falciparum 3D7 infected in human erythrocytes assessed as delay in maturation of rings at 1 to 10 uM measured for 56 hrs by giemsa staining based microscopic analysis. It is filed as functional, organism-based. Conditions: Erythrocyte, dose 1-10 µM.
Data set [9] concerns Plasmodium falciparum. Put plainly: Antiplasmodial activity against Plasmodium falciparum 3D7 infected in human erythrocytes assessed as pyknotic trophozoites development at 1 to 10 uM measured for 56 hrs by giemsa staining based microscopic analysis. It is filed as functional, organism-based. Conditions: Erythrocyte, dose 1-10 µM.
The subject of another data set is Plasmodium berghei. As to the kind of experiment: Antiplasmodial activity against firefly luciferase-expressing Plasmodium berghei liver stage infected in human Huh-7 cells assessed as inhibition of parasite growth preincubated with cells for 1 hrs followed by parasite infection and […] by bioluminescence assay. It is filed as functional, organism-based.

A short description of data set [10]: Inhibition of Plasmodium falciparum Plasmepsin X assessed as inhibition constant using DABCYL-G-PSFVEAPVRGG-EDANS as substrate by fluorescence based assay relative to control.

In general, pIC50 refers to −log10 of the IC50, conventionally taken in molar units. As a reminder, the inhibition is the relative decrease from the control value, in per cent. Read a high inhibition as a response far below the control. With `O=C(N[C@@H](Cc1ccccc1)[C@@H](O)CN1CCN(Cc2ccccc2)CC1)c1cnccn1`, the CC50 at 48 h in [1] was found to be 1000 µM. Moreover, the negative logarithm of the IC50 (pIC50) in the data set with Plasmodium falciparum [2] and in the data set on Plasmodium falciparum [4] was 5.90 in each case. Besides, the selectivity ratio in [3] stood at 791. Besides, the Ratio in the data set on Plasmodium falciparum [5] stood at 4.07. Moreover, in the data set with Plasmodium falciparum [6], the “Ratio IC50” value amounted to 1. The molecule further showed an inhibition with Plasmodium falciparum [7] of 21%. Moreover, the Activity result with Erythrocyte is reported as “Non-Toxic”.
Regarding `O=C(N[C@@H](Cc1ccccc1)[C@@H](O)CN1CCN(Cc2ccccc2)CC1)c1cnc2ccccc2c1`, the CC50 at 48 h in [1] was found to be 100 µM. Moreover, the selectivity ratio in [3] was found to be 400. Also, in the data set with Plasmodium falciparum [4], the pIC50 is 6.60. The molecule further gave an inhibition in the data set on Plasmodium falciparum [7] of 11.7%. Besides, the Activity result in the data set on Erythrocyte is “Non-Toxic”.
In the case of `O=C(Cc1cccc(C(F)(F)F)c1)N[C@@H](Cc1ccccc1)[C@@H](O)CN1CCN(Cc2ccccc2)CC1`, the CC50 at 48 h in data set [1] turned out to be 990 µM. In addition, the selectivity ratio in data set [3] is 900. Further, the pIC50 in the data set on Plasmodium falciparum [4] was 5.96. In the data set with Plasmodium falciparum [7], this molecule had an inhibition of 13.7%.
Take `O=C(N[C@@H](Cc1ccccc1)[C@@H](O)CN1CCN(Cc2ccccc2)CC1)c1ccc(F)cc1`: in data set [1], the CC50 at 48 h turned out to be 267 µM. The values for the pIC50 in the data set on Plasmodium falciparum [2] and in the data set with Plasmodium falciparum [4] were 6.14 and 6.39, respectively. The selectivity ratio in data set [3] was 636. Moreover, the outcome in the data set on Plasmodium falciparum [8] and with Plasmodium falciparum [9] was Active. Besides, in the data set on Plasmodium falciparum [5], the Ratio was 3.73. The “Ratio IC50” value in the data set on Plasmodium falciparum [6] was 1.73. In the data set on Plasmodium falciparum [7], the inhibition was 0.92%.
Take `O=C(CCc1ccc(Br)cc1)N[C@@H](Cc1ccccc1)[C@@H](O)CN1CCN(Cc2ccccc2)CC1`: the CC50 at 48 h in [1] turned out to be 129 µM. In addition, the pIC50 is 5.40 with Plasmodium berghei and 6.29 with Plasmodium falciparum [4]. For the same molecule, the selectivity ratio in data set [3] came out at 252. In the data set on Plasmodium falciparum [7], this molecule had an inhibition of 21.5%.
As usually defined, the pKi is the Ki on a negative log10 scale, so that one unit is a factor of ten. With `CN1CCN(Cc2ccc(C(=O)N[C@@H](Cc3ccccc3)[C@@H](O)CN3CCN(Cc4ccccc4)CC3)cc2)CC1`, the CC50 at 48 h in data set [1] turned out to be 860 µM. The selectivity ratio in [3] came to 887. For the same molecule, the negative-log Ki (pKi) in data set [10] is 6.04. Also, the negative logarithm of the IC50 (pIC50) with Plasmodium falciparum [4] is 6.01. The molecule also displayed an inhibition with Plasmodium falciparum [7] of 38.6%.
Turning to `O=C(Cc1ccccc1)N[C@@H](Cc1ccccc1)[C@@H](O)CN1CCN(Cc2ccccc2)CC1`, the CC50 at 48 h in [1] stood at 305 µM. Besides, the selectivity ratio in data set [3] is under 61. The pIC50 in the data set with Plasmodium falciparum [4] was under 5.30. This molecule also yielded an inhibition with Plasmodium falciparum [7] of 6.85%.
On to `Cc1cnc(C(=O)N[C@@H](Cc2ccccc2)[C@@H](O)CN2CCN(Cc3ccccc3)CC2)cn1`, for which the CC50 at 48 h in data set [1] came out at 285 µM. Further, the figures for the pIC50 in the data set on Plasmodium falciparum [2] and with Plasmodium falciparum [4] were 6.10 and 5.91, respectively. Also, in data set [3], the selectivity ratio stood at 232. In addition, the Ratio in the data set with Plasmodium falciparum [5] came to 4.28. In addition, the “Ratio IC50” value in the data set on Plasmodium falciparum [6] came to 0.65. In the data set with Plasmodium falciparum [7], this molecule yielded an inhibition of 8.79%. The Activity entry in the data set on Erythrocyte was “Non-Toxic”.
As to `Cc1ccc(OCC(=O)N[C@@H](Cc2ccccc2)[C@@H](O)CN2CCN(Cc3ccccc3)CC2)cc1`, the CC50 at 48 h in [1] amounted to 200 µM. Moreover, the selectivity ratio in [3] came out at 1000. Further, in the data set on Plasmodium falciparum [4], the negative logarithm of the IC50 (pIC50) is 6.70. In the data set with Plasmodium falciparum [7], this molecule returned an inhibition of 24.5%.
In the same order, the values of `CN1CCN(c2ccc(C(=O)N[C@@H](Cc3ccccc3)[C@@H](O)CN3CCN(Cc4ccccc4)CC3)cc2)CC1` are 189 µM, 189, 6.00 and 34%.
The corresponding values for `CCC(C(=O)N[C@@H](Cc1ccccc1)[C@@H](O)CN1CCN(Cc2ccccc2)CC1)c1ccccc1` (stereo not given in full) are 1350 µM, 1420, 6.02 and 15.5%.

The values above are taken from ChEMBL document CHEMBL5214906, “Novel Antiplasmodial Compounds Leveraged with Multistage Potency against the Parasite Plasmodium falciparum: In Vitro and In Vivo Evaluations and Pharmacokinetic Studies” (J Med Chem, 2021).
